The test addresses T1, human recombinant IL-17A (Homo sapiens, UniProt Q16552).
T1 construct: purchased R&D Systems 7955-IL/CF
T1 sequence (Q16552 24-155): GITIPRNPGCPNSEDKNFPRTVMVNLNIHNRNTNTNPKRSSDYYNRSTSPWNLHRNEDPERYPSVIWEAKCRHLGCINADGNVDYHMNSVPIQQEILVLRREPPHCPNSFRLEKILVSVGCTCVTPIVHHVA
Kind of test: IL-17A AlphaLISA assay (block binding of IL-17A to its receptor IL-17RA). The settings on record: compounds pre-incubated with the IL-17A for 30 min (indicated by * in Table A); read-out: AlphaLISA pIC50 (converted). In short, it runs like this: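 PBS with 0.05% Tween-20 and 0.1% BSA. IL-17A stock 7.5 nM, IL-17RA/Fc stock 5 nM; compound–cytokine pre-incubation 24 h at RT, or 30 min where marked, then 90 min with receptor. pIC50 from 4-parameter logistic AlphaLISA signal, normalised to DMSO and 6 μM reference inhibitor.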
In general terms: Bead proximity is the source of the signal in Alpha formats.

Regarding `CCn1nnc(C)c1-c1ccc(NC(=O)[C@@H](NC(=O)c2ccnn2C)C2CCCCCC2)nc1` [Example 157, (S)—N-(1-cycloheptyl-2-((5-(1-ethyl-4-methyl-1H-1,2,3-triazol-5-yl)pyridin-2-yl)amino)-2-oxoethyl)-1-methyl-1H-pyrazole-5-carboxamide], the IC50 was 251 nM. `Cc1noc(C)c1-c1cnc(NC(=O)[C@@H](NC(=O)c2ccnn2C)C2CCCCCC2)cn1` [Example 158, (S)—N-(1-cycloheptyl-2-((5-(3,5-dimethylisoxazol-4-yl)pyrazin-2-yl)amino)-2-oxoethyl)-1-methyl-1H-pyrazole-5-carboxamide]: the IC50 was 631 nM. For `CCn1nccc1C(=O)N[C@H](C(=O)Nc1ccc(-c2c(C)nnn2C)cn1)[C@H]1CC[C@H](C)CC1` [Example 159, N—((S)-2-((5-(1,4-dimethyl-1H-1,2,3-triazol-5-yl)pyridin-2-yl)amino)-1-((1r,4S)-4-methylcyclohexyl)-2-oxoethyl)-1-ethyl-1H-pyrazole-5-carboxamide], the IC50 is 100 nM. With `Cc1nocc1C(=O)N[C@H](C(=O)Nc1ccc(-c2c(C)nnn2C)cn1)[C@H]1CC[C@H](C)CC1` [Example 160, N—((S)-2-((5-(1,4-dimethyl-1H-1,2,3-triazol-5-yl)pyridin-2-yl)amino)-1-((1r,4S)-4-methylcyclohexyl)-2-oxoethyl)-3-methylisoxazole-4-carboxamide] the figure was 200 nM; with `Cc1nnn(C2CC2)c1-c1ccc(NC(=O)[C@@H](NC(=O)c2ccnn2C)C2CCCCCC2)nc1` [Example 161, (S)—N-(1-cycloheptyl-2-((5-(1-cyclopropyl-4-methyl-1H-1,2,3-triazol-5-yl)pyridin-2-yl)amino)-2-oxoethyl)-1-methyl-1H-pyrazole-5-carboxamide], 200 nM. For `Cc1noc(C)c1-c1cnc(NC(=O)[C@@H](NC(=O)c2ccnn2C)C2CCCCCC2)c(F)c1` [Example 162, (S)—N-(1-cycloheptyl-2-((5-(3,5-dimethylisoxazol-4-yl)-3-fluoropyridin-2-yl)amino)-2-oxoethyl)-1-methyl-1H-pyrazole-5-carboxamide], the IC50 is 200 nM. To `CCn1nccc1C(=O)N[C@H](C(=O)Nc1ncc(-c2c(C)noc2C)cc1F)C1CCCCCC1` [Example 163, (S)—N-(1-cycloheptyl-2-((5-(3,5-dimethylisoxazol-4-yl)-3-fluoropyridin-2-yl)amino)-2-oxoethyl)-1-ethyl-1H-pyrazole-5-carboxamide] belongs 63.1 nM.

Regarding `CCc1nocc1C(=O)N[C@H](C(=O)Nc1ncc(-c2c(C)noc2C)cc1F)C1CCCCCC1` [Example 164, (S)—N-(1-cycloheptyl-2-((5-(3,5-dimethylisoxazol-4-yl)-3-fluoropyridin-2-yl)amino)-2-oxoethyl)-3-ethylisoxazole-4-carboxamide], the IC50 was 63.1 nM. With `Cc1cnn(C)c1-c1cnc(NC(=O)[C@@H](NC(=O)c2ccnn2C)C2CCCCCC2)nc1` [Example 165, (S)—N-(1-cycloheptyl-2-((5-(1,4-dimethyl-1H-pyrazol-5-yl)pyrimidin-2-yl)amino)-2-oxoethyl)-1-methyl-1H-pyrazole-5-carboxamide] the figure was 631 nM; with `Cn1nccc1C(=O)N[C@H](C(=O)Nc1ccc(-c2c(O)cnn2C)cn1)C1CCCCCC1` [Example 166, (S)—N-(1-cycloheptyl-2-((5-(4-hydroxy-1-methyl-1H-pyrazol-5-yl)pyridin-2-yl)amino)-2-oxoethyl)-1-methyl-1H-pyrazole-5-carboxamide], 631 nM. With `Cc1cnn(C)c1-c1ccc(NC(=O)[C@@H](NC(=O)c2cnnn2C)[C@H]2CC[C@H](C)CC2)nc1` [Example 167, N—((S)-2-((5-(1,4-dimethyl-1H-pyrazol-5-yl)pyridin-2-yl)amino)-1-((1r,4S)-4-methylcyclohexyl)-2-oxoethyl)-1-methyl-1H-1,2,3-triazole-5-carboxamide] the figure was 316 nM; with `CCn1nncc1C(=O)N[C@H](C(=O)Nc1ccc(-c2c(C)cnn2C)cn1)[C@H]1CC[C@H](C)CC1` [Example 168, N—((S)-2-((5-(1,4-dimethyl-1H-pyrazol-5-yl)pyridin-2-yl)amino)-1-((1r,4S)-4-methylcyclohexyl)-2-oxoethyl)-1-ethyl-1H-1,2,3-triazole-5-carboxamide], 158 nM. With `CCn1nccc1C(=O)N[C@H](C(=O)Nc1ccc(-c2c(C)noc2C)nc1)C1CCCCCC1` [Example 169, (S)—N-(1-cycloheptyl-2-((6-(3,5-dimethylisoxazol-4-yl)pyridin-3-yl)amino)-2-oxoethyl)-1-ethyl-1H-pyrazole-5-carboxamide] the figure was 100 nM. Regarding `Cc1nocc1C(=O)N[C@H](C(=O)Nc1ccc(-c2c(C)noc2C)nc1)C1CCCCCC1` [Example 170, (S)—N-(1-cycloheptyl-2-((6-(3,5-dimethylisoxazol-4-yl)pyridin-3-yl)amino)-2-oxoethyl)-3-methylisoxazole-4-carboxamide], the IC50 was 158 nM. In the case of `CCc1nocc1C(=O)N[C@H](C(=O)Nc1ccc(-c2c(C)noc2C)nc1)C1CCCCCC1` [Example 171, (S)—N-(1-cycloheptyl-2-((6-(3,5-dimethylisoxazol-4-yl)pyridin-3-yl)amino)-2-oxoethyl)-3-ethylisoxazole-4-carboxamide], the IC50 was 79.4 nM. Turning to `Cc1noc(C)c1-c1ccc(NC(=O)[C@@H](NC(=O)c2ccnn2C)C2CCCCCC2)cn1` [Example 172, (S)—N-(1-cycloheptyl-2-((6-(3,5-dimethylisoxazol-4-yl)pyridin-3-yl)amino)-2-oxoethyl)-1-methyl-1H-pyrazole-5-carboxamide], the IC50 was 200 nM. On to `Cn1nccc1C(=O)N[C@H](C(=O)Nc1ccc(-c2c(C3CC3)nnn2C)cn1)C1CCCCCC1` [Example 173, (S)—N-(1-cycloheptyl-2-((5-(4-cyclopropyl-1-methyl-1H-1,2,3-triazol-5-yl)pyridin-2-yl)amino)-2-oxoethyl)-1-methyl-1H-pyrazole-5-carboxamide], for which the IC50 is 158 nM. With `Cn1nccc1C(=O)N[C@H](C(=O)Nc1ccc(-c2c(Cl)cnn2C)cn1)C1CCCCCC1` [Example 174, (S)—N-(2-((5-(4-chloro-1-methyl-1H-pyrazol-5-yl)pyridin-2-yl)amino)-1-cycloheptyl-2-oxoethyl)-1-methyl-1H-pyrazole-5-carboxamide] the figure was 158 nM. As for `CCc1nocc1C(=O)N[C@H](C(=O)Nc1ccc(-c2c(Cl)cnn2C)cn1)C1CCCCCC1` [Example 175, (S)—N-(2-((5-(4-chloro-1-methyl-1H-pyrazol-5-yl)pyridin-2-yl)amino)-1-cycloheptyl-2-oxoethyl)-3-ethylisoxazole-4-carboxamide], the IC50 was 31.6 nM. As to `CCn1nccc1C(=O)N[C@H](C(=O)Nc1ccc(-c2c(Cl)cnn2C)cn1)C1CCCCCC1` [Example 176, (S)—N-(2-((5-(4-chloro-1-methyl-1H-pyrazol-5-yl)pyridin-2-yl)amino)-1-cycloheptyl-2-oxoethyl)-1-ethyl-1H-pyrazole-5-carboxamide], the IC50 is 39.8 nM.

As for `Cc1cnn(C)c1-c1ccc(NC(=O)[C@@H](NC(=O)c2ccnn2C)C2CCCCC2)nc1` [Example 177, (S)—N-(1-cyclohexyl-2-((5-(1,4-dimethyl-1H-pyrazol-5-yl)pyridin-2-yl)amino)-2-oxoethyl)-1-methyl-1H-pyrazole-5-carboxamide], the IC50 was 200 nM. To `CCc1nocc1C(=O)N[C@H](C(=O)Nc1ccc(-c2c(C)cnn2C)cn1)C1CCCCC1` [Example 178, (S)—N-(1-cyclohexyl-2-((5-(1,4-dimethyl-1H-pyrazol-5-yl)pyridin-2-yl)amino)-2-oxoethyl)-3-ethylisoxazole-4-carboxamide] belongs 79.4 nM; to `Cc1cnn(C)c1-c1ncc(NC(=O)[C@@H](NC(=O)c2ccnn2C)[C@H]2CC[C@H](C)CC2)cc1F` [Example 179, N—((S)-2-((6-(1,4-dimethyl-1H-pyrazol-5-yl)-5-fluoropyridin-3-yl)amino)-1-((1r,4S)-4-methylcyclohexyl)-2-oxoethyl)-1-methyl-1H-pyrazole-5-carboxamide], 501 nM. To `CCc1nocc1C(=O)N[C@H](C(=O)Nc1cnc(-c2c(C)cnn2C)c(F)c1)[C@H]1CC[C@H](C)CC1` [Example 180, N—((S)-2-((6-(1,4-dimethyl-1H-pyrazol-5-yl)-5-fluoropyridin-3-yl)amino)-1-((1r,4S)-4-methylcyclohexyl)-2-oxoethyl)-3-ethylisoxazole-4-carboxamide] belongs 158 nM; to `Cc1cnn(C)c1-c1ccc(NC(=O)[C@@H](NC(=O)c2conc2C)C2CCCCC2)nc1` [Example 181, (S)—N-(1-cyclohexyl-2-((5-(1,4-dimethyl-1H-pyrazol-5-yl)pyridin-2-yl)amino)-2-oxoethyl)-3-methylisoxazole-4-carboxamide], 158 nM. Turning to `Cn1nccc1C(=O)N[C@H](C(=O)Nc1ccc(-c2c(CO)cnn2C)cn1)C1CCCCCC1` [Example 182, (S)—N-(1-cycloheptyl-2-((5-(4-(hydroxymethyl)-1-methyl-1H-pyrazol-5-yl)pyridin-2-yl)amino)-2-oxoethyl)-1-methyl-1H-pyrazole-5-carboxamide], the IC50 was 31.6 nM. To `Cc1cnn(C)c1-c1ccc(NC(=O)C(NC(=O)c2ccnn2C)C2CC3CCC2C3)nc1` (stereo not drawn) [Example 184, N-(1-(bicyclo[2.2.1]heptan-2-yl)-2-((5-(1,4-dimethyl-1H-pyrazol-5-yl)pyridin-2-yl)amino)-2-oxoethyl)-1-methyl-1H-pyrazole-5-carboxamide] belongs 251 nM.

For the origin of these results see patent US20230227427A1, “IL-17A MODULATORS” (SANOFI, priority 2010, published 2023).
